Source: patent US11325938B2, “CD73 inhibitors” (ORIC Pharmaceuticals, Inc., priority 2018, dated 2022)
pIC50: −log10 of the molar value.

Target: CD73 (Homo sapiens (Human), UniProt P21589)
Assay: Biochemical assay: inhibition of CD73 activity (AMP hydrolysis, Malachite Green readout)
Settings: CD73 0.3208 nM, AMP 15 μM, 25 mM Tris-HCl pH 7.4, RT, absorbance 620 nm
In short: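 Phosphate from AMP hydrolysis (15 μM AMP, 10 min, RT) was detected by Malachite Green absorbance to give IC50s. Enzyme at 320 pM was first exposed 15 min to compounds, dosed from 100 μM in ½-log steps, in Tris pH 7.4 buffer with MgCl2, Brij-35 and BSA.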

CD73, sequence (P21589 27-574): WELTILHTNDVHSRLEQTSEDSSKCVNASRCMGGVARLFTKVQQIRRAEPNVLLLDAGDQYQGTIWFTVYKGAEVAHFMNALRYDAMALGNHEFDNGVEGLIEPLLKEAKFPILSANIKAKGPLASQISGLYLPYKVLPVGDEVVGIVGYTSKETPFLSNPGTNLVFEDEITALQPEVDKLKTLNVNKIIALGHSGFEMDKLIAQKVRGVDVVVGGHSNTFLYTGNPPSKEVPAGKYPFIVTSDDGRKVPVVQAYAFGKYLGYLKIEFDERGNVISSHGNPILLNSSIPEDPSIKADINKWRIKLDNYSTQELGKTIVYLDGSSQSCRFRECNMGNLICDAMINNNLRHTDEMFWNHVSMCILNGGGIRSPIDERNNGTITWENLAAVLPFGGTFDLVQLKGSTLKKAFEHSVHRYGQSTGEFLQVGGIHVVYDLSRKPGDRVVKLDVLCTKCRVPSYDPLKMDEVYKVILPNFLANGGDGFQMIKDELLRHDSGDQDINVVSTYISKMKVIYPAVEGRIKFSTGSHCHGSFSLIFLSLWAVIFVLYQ

| SMILES | pIC50 |
| --- | --- |
| O=P(O)(O)C(OC[C@H]1O[C@@H](n2ncc3c(NC4CCCC4)nc(Cl)nc32)[C@H](O)[C@@H]1O)C(F)(F)F (stereo partly drawn) [Example 80, (1-(((2R,3S,4R,5R)-5-(6-chloro-4-(cyclopentylamino)-1H-pyrazolo[3,4-d]pyrimidin-1-yl)-3,4-dihydroxytetrahydrofuran-2-yl)methoxy)-2,2,2-trifluoroethyl)phosphonic acid] | 6.00 to 7.00 |
| COC[C@@H](OC[C@H]1O[C@@H](n2ncc3c(NC4CCCC4)nc(Cl)nc32)[C@H](O)[C@@H]1O)P(=O)(O)O [Example 64, ((S)-1-(((2R,3S,4R,5R)-5-(6-chloro-4-(cyclopentylamino)-1H-pyrazolo[3,4-d]pyrimidin-1-yl)-3,4-dihydroxytetrahydrofuran-2-yl)methoxy)-2-methoxyethyl)phosphonic acid] | ≥ 7.00 |
| CCOCC(CO)(OC[C@H]1O[C@@H](n2ncc3c(NC4CCCC4)nc(Cl)nc32)[C@H](O)[C@@H]1O)P(=O)(O)O (mixture of isomers) [Example 169, rac-(2-(((2R,3S,4R,5R)-5-(6-chloro-4-(cyclopentylamino)-1H-pyrazolo[3,4-d]pyrimidin-1-yl)-3,4-dihydroxytetrahydrofuran-2-yl)methoxy)-1-ethoxy-3-hydroxypropan-2-yl)phosphonic acid] | ≥ 7.00 |
| CC(C)(O)COc1nc(NC2CCCC2)c2cnn([C@@H]3O[C@H](COC(C)(CO)P(=O)(O)O)[C@@H](O)[C@H]3O)c2n1 (stereo partly drawn) [Example 146, (2-(((2R,3S,4R,5R)-5-(4-(cyclopentylamino)-6-(2-hydroxy-2-methylpropoxy)-1H-pyrazolo[3,4-d]pyrimidin-1-yl)-3,4-dihydroxytetrahydrofuran-2-yl)methoxy)-1-hydroxypropan-2-yl)phosphonic acid] | ≥ 7.00 |
| O=P(O)(O)[C@](CO)(COCc1ccccc1)OC[C@H]1O[C@@H](n2ncc3c(NC4CCCC4)nc(Cl)nc32)[C@H](O)[C@@H]1O (racemic) [Example 179, rac-((R)-1-(benzyloxy)-2-(((2R,3S,4R,5R)-5-(6-chloro-4-(cyclopentylamino)-1H-pyrazolo[3,4-d]pyrimidin-1-yl)-3,4-dihydroxytetrahydrofuran-2-yl)methoxy)-3-hydroxypropan-2-yl)phosphonic acid] | ≥ 7.00 |
| CCS(=O)(=O)C[C@@](C)(OC[C@H]1O[C@@H](n2ncc3c(NC4CCCC4)nc(Cl)nc32)[C@H](O)[C@@H]1O)P(=O)(O)O [Example 138, ((S)-2-(((2R,3S,4R,5R)-5-(6-chloro-4-(cyclopentylamino)-1H-pyrazolo[3,4-d]pyrimidin-1-yl)-3,4-dihydroxytetrahydrofuran-2-yl)methoxy)-1-(ethylsulfonyl)propan-2-yl)phosphonic acid] | ≥ 7.00 |
| O=P(O)(O)C(CO)OC[C@H]1O[C@@H](n2ncc3c(N[C@H]4CCc5ccccc54)nc(Cl)nc32)[C@H](O)[C@@H]1O (stereo partly drawn) [Example 39, (1-(((2R,3S,4R,5R)-5-(6-chloro-4-(((S)-2,3-dihydro-1H-inden-1-yl)amino)-1H-pyrazolo[3,4-d]pyrimidin-1-yl)-3,4-dihydroxytetrahydrofuran-2-yl)methoxy)-2-hydroxyethyl)phosphonic acid] | ≥ 7.00 |
| CCOCC(C)(OC[C@H]1O[C@@H](n2ncc3c(NC4CCCC4)nc(Cl)nc32)[C@H](O)[C@@H]1O)P(=O)(O)O (stereo partly drawn) [Example 156, (2-(((2R,3S,4R,5R)-5-(6-chloro-4-(cyclopentylamino)-1H-pyrazolo[3,4-d]pyrimidin-1-yl)-3,4-dihydroxytetrahydrofuran-2-yl)methoxy)-1-ethoxypropan-2-yl)phosphonic acid] | ≥ 7.00 |
| CC(CO)(OC[C@H]1O[C@@H](n2ncc3c(NC4CCCC4)nc(C#CCO)nc32)[C@H](O)[C@@H]1O)P(=O)(O)O (stereo partly drawn) [Example 89, (2-(((2R,3S,4R,5R)-5-(4-(Cyclopentylamino)-6-(3-hydroxyprop-1-yn-1-yl)-1H-pyrazolo[3,4-d]pyrimidin-1-yl)-3,4-dihydroxytetrahydrofuran-2-yl)methoxy)-1-hydroxypropan-2-yl)phosphonic acid] | ≥ 7.00 |
| O=P(O)(O)C(CO)(COCC(F)(F)F)OC[C@H]1O[C@@H](n2ncc3c(NC4CCCC4)nc(Cl)nc32)[C@H](O)[C@@H]1O (mixture of isomers) [Example 207, rac-(2-(((2R,3S,4R,5R)-5-(6-chloro-4-(cyclopentylamino)-1H-pyrazolo[3,4-d]pyrimidin-1-yl)-3,4-dihydroxytetrahydrofuran-2-yl)methoxy)-1-hydroxy-3-(2,2,2-trifluoroethoxy)propan-2-yl)phosphonic acid] | ≥ 7.00 |
| O=P(O)(O)[C@@H](CO)OC[C@H]1O[C@@H](n2ncc3c(NC4CCCC4)nc(Cl)nc32)[C@H](O)[C@@H]1O (single isomer, unassigned) [Example 3] | ≥ 7.00 |
| O=P(O)(O)CS(=O)(=O)C[C@H]1O[C@@H](n2nnc3c(NC4CCCC4)cc(Cl)nc32)[C@H](O)[C@@H]1O [Example 16, (((((2S,3S,4R,5R)-5-(5-Chloro-7-(cyclopentylamino)-3H-[1,2,3]triazolo[4,5-b]pyridin-3-yl)-3,4-dihydroxytetrahydrofuran-2-yl)methyl)sulfonyl)methyl)phosphonic acid] | ≥ 7.00 |

Next, values leading:

| pIC50 | SMILES |
| --- | --- |
| ≥ 7.00 | O=P(O)(O)C(CO)(COCC(F)(F)F)OC[C@H]1O[C@@H](n2ncc3c(NC4CCCC4)nc(Cl)nc32)[C@H](O)[C@@H]1O (stereo partly drawn) [Example 95, (2-(((2R,3S,4R,5R)-5-(6-chloro-4-(cyclopentylamino)-1H-pyrazolo[3,4-d]pyrimidin-1-yl)-3,4-dihydroxytetrahydrofuran-2-yl)methoxy)-1-hydroxy-3-(2,2,2-trifluoroethoxy)propan-2-yl)phosphonic acid] |
| ≥ 7.00 | O=P(O)(O)C(CO)(CO)OC[C@H]1O[C@@H](n2ncc3c(NC4CCC4)nc(Cl)nc32)[C@H](O)[C@@H]1O [Example 116, (2-(((2R,3S,4R,5R)-5-(6-chloro-4-(cyclobutylamino)-1H-pyrazolo[3,4-d]pyrimidin-1-yl)-3,4-dihydroxytetrahydrofuran-2-yl)methoxy)-1,3-dihydroxypropan-2-yl)phosphonic acid] |
| ≥ 7.00 | CN(c1nc(Cl)nc2c1cnn2[C@@H]1O[C@H](COC(CO)(CO)P(=O)(O)O)[C@@H](O)[C@H]1O)C1CCCC1 (racemic) [Example 211, rac-(2-(((2R,3S,4R,5R)-5-(6-chloro-4-(cyclopentyl(methyl)amino)-1H-pyrazolo[3,4-d]pyrimidin-1-yl)-3,4-dihydroxytetrahydrofuran-2-yl)methoxy)-1,3-dihydroxypropan-2-yl)phosphonic acid] |
| ≥ 7.00 | C[C@H](O)[C@H](OC[C@H]1O[C@@H](n2ncc3c(NC4CCCC4)nc(Cl)nc32)[C@H](O)[C@@H]1O)P(=O)(O)O [Example 12, ((1R,2S)-1-(((2R,3S,4R,5R)-5-(6-chloro-4-(cyclopentylamino)-1H-pyrazolo[3,4-d]pyrimidin-1-yl)-3,4-dihydroxytetrahydrofuran-2-yl)methoxy)-2-hydroxypropyl)phosphonic acid] |
| ≥ 7.00 | O=P(O)(O)CS(=O)(=O)C[C@H]1O[C@@H](n2nnc3c(NCC4CC4)cc(Cl)nc32)[C@H](O)[C@@H]1O [Example 25, (((((2S,3S,4R,5R)-5-(5-chloro-7-((cyclopropylmethyl)amino)-3H-[1,2,3]triazolo[4,5-b]pyridin-3-yl)-3,4-dihydroxytetrahydrofuran-2-yl)methyl)sulfonyl)methyl)phosphonic acid] |
| ≥ 7.00 | COC[C@](C)(OC[C@H]1O[C@@H](n2ncc3c(NCC4CC4)nc(Cl)nc32)[C@H](O)[C@@H]1O)P(=O)(O)O [Example 131, ((R)-2-(((2R,3S,4R,5R)-5-(6-chloro-4-((cyclopropylmethyl)amino)-1H-pyrazolo[3,4-d]pyrimidin-1-yl)-3,4-dihydroxytetrahydrofuran-2-yl)methoxy)-1-methoxypropan-2-yl)phosphonic acid] |
| ≥ 7.00 | O=P(O)(O)[C@@H](Cc1ccccc1)S(=O)(=O)C[C@H]1O[C@@H](n2ncc3c(NC4CCCC4)nc(Cl)nc32)[C@H](O)[C@@H]1O [Example 10, ((R)-1-((((2S,3S,4R,5R)-5-(6-chloro-4-(cyclopentylamino)-1H-pyrazolo[3,4-d]pyrimidin-1-yl)-3,4-dihydroxytetrahydrofuran-2-yl)methyl)sulfonyl)-2-phenylethyl)phosphonic acid] |
| ≥ 7.00 | CS(=O)(=O)CC(CO)(OC[C@H]1O[C@@H](n2ncc3c(NC4CCCC4)nc(Cl)nc32)[C@H](O)[C@@H]1O)P(=O)(O)O (stereo partly drawn) [Example 107, (2-(((2R,3S,4R,5R)-5-(6-chloro-4-(cyclopentylamino)-1H-pyrazolo[3,4-d]pyrimidin-1-yl)-3,4-dihydroxytetrahydrofuran-2-yl)methoxy)-1-hydroxy-3-(methylsulfonyl)propan-2-yl)phosphonic acid] |
| ≥ 7.00 | C[C@](CO)(OC[C@H]1O[C@@H](n2ncc3c(NC4CCCC4)nc(OCCO)nc32)[C@H](O)[C@@H]1O)P(=O)(O)O [Example 147, ((S)-2-(((2R,3S,4R,5R)-5-(4-(cyclopentylamino)-6-(2-hydroxyethoxy)-1H-pyrazolo[3,4-d]pyrimidin-1-yl)-3,4-dihydroxytetrahydrofuran-2-yl)methoxy)-1-hydroxypropan-2-yl)phosphonic acid] |
| ≥ 7.00 | CC1(Nc2nc(Cl)nc3c2cnn3[C@@H]2O[C@H](CO[C@@](C)(CO)P(=O)(O)O)[C@@H](O)[C@H]2O)CCCC1 [Example 105, ((R)-2-(((2R,3S,4R,5R)-5-(6-chloro-4-((1-methylcyclopentyl)amino)-1H-pyrazolo[3,4-d]pyrimidin-1-yl)-3,4-dihydroxytetrahydrofuran-2-yl)methoxy)-1-hydroxypropan-2-yl)phosphonic acid] |
| ≥ 7.00 | O=P(O)(O)C(CO)(Cc1cc(O)no1)OC[C@H]1O[C@@H](n2ncc3c(NC4CCCC4)nc(Cl)nc32)[C@H](O)[C@@H]1O (mixture of isomers) [Example 195, rac-(2-(((2R,3S,4R,5R)-5-(6-chloro-4-(cyclopentylamino)-1H-pyrazolo[3,4-d]pyrimidin-1-yl)-3,4-dihydroxytetrahydrofuran-2-yl)methoxy)-1-hydroxy-3-(3-hydroxyisoxazol-5-yl)propan-2-yl)phosphonic acid] |
